Data taken from EP4529915A1, “LIPOSOMAL PREPARATIONS FOR USE IN TREATING CANCER” (DG-Nika AG, priority 2023, dated 2025).
Read-outs that look alike come from different tables or passages of the source.

Legend:
[1] = cited from earlier work
[2] = Dissolution of lomustine in aqueous cyclodextrin solution (solubility); type: physicochemical
Excerpt: However, they made an unexpected discovery that a methyl-β-CD (methyl-β-cyclodextrin) solution was able to dissolve lomustine crystals to the aqueous phase within a few seconds. They determined that the mechanism of this process is mostly related to co-dissolution rather than the formation of an inclusion complex as is often the case. In this respect, the formation of an inclusion complex usually takes from a few to several hours and requires constant mixing, heating and the use of a co-solvent such as ethanol or methanol.
The present invention provides a method of preparing a liposomal form of lomustine by (i) producing its aqueous solution of high concentration and (ii) then encapsulating it in the aqueous space of liposomes. Thanks to the use of selected cyclodextrins it is possible to obtain a high concentration of lomustine in water of ~20 mg / ml. The normal concentration of lomustine is not more than 0.11 mg/ml when no additives are used. This method makes it possible to encapsulate lomustine in the water space of liposomes in the form of its solution in water or/and inclusion complex with cyclodextrins, or to obtain the effect of co-dissolving lomustine and cyclodextrin in an aqueous solution. The main advantage of this solution is to limit the crystallization and escape of the drug from the liposomes by transferring it to an aqueous solution using not organic solvents such as ethanol, but various organic substances that can be administered intravenously without harming the patient and not damaging the liposomes as is the case with high concentrations of ethanol needed to obtain a high concentration of lomustine in water.
For this reason, they were looking for a way to effectively encapsulate the drug in the aqueous space of liposomes as a real solution. While searching for substances that could potentially enable the transfer of lomustine from its crystals to the aqueous phase, inventors unexpectedly discovered that a methyl-β-CD solution dissolved lomustine within a few seconds. […]

[3] = in water, no additives used; cited from earlier work

O=NN(CCCl)C(=O)NC1CCCCC1 [lomustine]
metabolites remaining in the body ([1]; 5 days after administration): 15-20% | time until active metabolites appear in substantial concentrations in CSF ([1]; after oral administration): ≤ 30 min | concentration of metabolites in the cerebrospinal fluid relative to plasma ([1]; in vivo): 150% | cyclohexyl moiety of lomustine bound to plasma proteins ([1]; in vivo): About 600 | second phase plasma half-life ([1]; in vivo): 24 to 48 h | detection of lomustine in cerebral spinal fluid (CSF) ([1]; oral, parent drug): not detectable | bioavailability ([1]; orally administered): very low | biotransformation half-life ([1]; throughout the body): less than 1 hour | dose of the drug excreted as metabolites in the urine ([1]; within 24 hours): about half | dose of the drug excreted as metabolites in the urine ([1]; within 4 days): less than 75% | concentration of lomustine in solution ([2]; 25% methyl-β-CD solution, room temperature (R.T.)): at least 20 mg/ml | time for dissolution of lomustine crystals to the aqueous phase ([2]; methyl-β-CD solution, room temperature): a few seconds | concentration of lomustine in water ([2]; with selected cyclodextrins): ~ 20 mg / ml | normal concentration of lomustine [3]: not more than 0.11 mg/ml
